Earlier results, collected in patent publication US20070197592A1, “Use of Paliperidone for the Treatment of Substance Abuse” (priority 2005, published 2007).

Key:
[1] = tested on: animals; settings: cited from earlier work; for water or food consumption: at the same time as the inhibition of alcohol consumption
[2] = tested on: golden hamster; settings: cited from earlier work

Row | SMILES | water or food consumption [1] | alcohol consumption [1] | alcohol drinking [2] | water or food intake [2]
1 | O=C1CC[C@@]2(O)[C@H]3Cc4ccc(O)c5c4[C@@]2(CCN3CC2CC2)[C@H]1O5 [naltrexone] | impaired water or food consumption | inhibit alcohol consumption | – | –
2 | CN[C@H]1CC[C@@H](c2ccc(Cl)c(Cl)c2)c2ccccc21 [sertraline] | impaired water or food consumption | inhibit alcohol consumption | – | –
3 | O=c1c(-c2ccc(O)cc2)coc2cc(O[C@@H]3O[C@H](CO)[C@@H](O)[C@H](O)[C@H]3O)ccc12 [Daidzin] | – | – | decreases alcohol drinking | without producing a decrease in water or food intake
4 | C=CCN1CC[C@]23c4c5ccc(O)c4O[C@H]2C(=O)CC[C@@]3(O)[C@H]1C5 [naloxone] | impaired water or food consumption | inhibit alcohol consumption | – | –
